{
  "source": "paper PMC6562204",
  "about": "(Bioorganic & Medicinal Chemistry, 2018)",
  "target": "CK2α (Homo sapiens, UniProt P68400)",
  "sequence (P68400 2-329)": "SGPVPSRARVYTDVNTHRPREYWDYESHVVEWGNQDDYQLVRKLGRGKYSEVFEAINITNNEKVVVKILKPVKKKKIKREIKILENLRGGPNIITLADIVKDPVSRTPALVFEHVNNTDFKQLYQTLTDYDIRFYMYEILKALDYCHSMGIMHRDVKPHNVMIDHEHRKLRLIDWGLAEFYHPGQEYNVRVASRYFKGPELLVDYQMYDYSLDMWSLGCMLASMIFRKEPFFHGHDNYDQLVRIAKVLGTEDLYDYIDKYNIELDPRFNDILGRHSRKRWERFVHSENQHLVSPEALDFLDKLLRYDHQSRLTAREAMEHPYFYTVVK",
  "assay": "biochemical",
  "conditions": "read-out: % inhibition of phosphorylation activity of CK2α",
  "data": [
    {"smiles": "NCc1cc(Cl)cc(-c2cccc3[nH]ccc23)c1", "note": "[Compound 7, (3-chloro-5-(1H-indol-4-yl)phenyl)methanamine]", "values": [
      {"measurement": "inhibition at 100 µM", "result": 18, "unit": "%"}
    ]}
  ]
}
